Data on 26 molecules can be found in ChEMBL document CHEMBL1154378, “Histamine H3 and H4 receptor affinity of branched 3-(1H-imidazol-4-yl)propyl N-alkylcarbamates” (Bioorg Med Chem Lett, 2009).

Structures are written as SMILES.

The species entered for one test is Homo sapiens. The test can be described thus: Selectivity, ratio of Ki for human histaminee H4 receptor to Ki for human histamine H3 receptor.
The target in test [1] is T1, Histamine H4 receptor (Homo sapiens, UniProt Q9H3N8). As to the kind of experiment: Displacement of [3H]histamine from human histamine H4 receptor expressed in SF9 cells coexpressing Galphai2, Gbeta1gamma2. For orientation: Loss of bound radioactivity is the signal in a displacement assay; it reports binding, not function.
Test [2] concerns the target T2, Histamine H3 receptor (Homo sapiens, UniProt Q9Y5N1). As to the kind of experiment: Displacement of [125I]iodoproxyfan from human histamine H3 receptor expressed in CHO-K1 cells.
Test [3] deals with T2, Histamine H3 receptor. The test can be described thus: Displacement of […]iodoproxyfan from human histamine H3 receptor expressed in HEK293 cells. Format: cell-based.
Test [4] concerns the target T1, Histamine H4 receptor. The test can be described thus: Displacement of [3H]histamine from human histamine H4 receptor expressed in HEK293 cells. The class given is cell-based.
In test [5] the target is Histamine H3 receptor (Rattus norvegicus, UniProt Q9QYN8). The test can be described thus: Displacement of [3H]histamine from histamine H3 receptor in rat cerebral cortex. The class given is tissue-based.
Chain of Histamine H3 receptor (Rattus norvegicus, UniProt Q9QYN8) (Q9QYN8 whole entry): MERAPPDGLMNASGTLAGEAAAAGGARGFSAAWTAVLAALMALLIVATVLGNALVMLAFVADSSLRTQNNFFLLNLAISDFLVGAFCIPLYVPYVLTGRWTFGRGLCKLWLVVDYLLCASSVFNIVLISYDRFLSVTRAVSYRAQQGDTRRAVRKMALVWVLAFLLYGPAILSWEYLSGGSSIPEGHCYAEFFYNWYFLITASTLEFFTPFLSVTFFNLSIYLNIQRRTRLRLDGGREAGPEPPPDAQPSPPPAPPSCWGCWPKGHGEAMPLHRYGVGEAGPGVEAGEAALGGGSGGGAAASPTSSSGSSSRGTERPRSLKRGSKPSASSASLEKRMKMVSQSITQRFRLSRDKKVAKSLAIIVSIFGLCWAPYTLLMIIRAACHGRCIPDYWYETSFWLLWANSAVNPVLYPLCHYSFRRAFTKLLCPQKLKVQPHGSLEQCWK

T1 sequence (Q9H3N8 whole entry): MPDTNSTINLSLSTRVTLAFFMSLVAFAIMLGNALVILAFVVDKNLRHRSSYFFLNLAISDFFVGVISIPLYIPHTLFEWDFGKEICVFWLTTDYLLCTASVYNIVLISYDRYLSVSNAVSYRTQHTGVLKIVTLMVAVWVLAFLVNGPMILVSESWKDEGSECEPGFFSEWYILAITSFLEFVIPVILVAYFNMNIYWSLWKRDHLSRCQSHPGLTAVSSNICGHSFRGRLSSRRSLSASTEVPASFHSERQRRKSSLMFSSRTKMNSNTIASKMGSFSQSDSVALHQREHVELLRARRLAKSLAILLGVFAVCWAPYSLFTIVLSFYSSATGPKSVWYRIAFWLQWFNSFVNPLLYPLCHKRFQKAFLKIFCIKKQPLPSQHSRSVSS
T2 sequence (Q9Y5N1 whole entry): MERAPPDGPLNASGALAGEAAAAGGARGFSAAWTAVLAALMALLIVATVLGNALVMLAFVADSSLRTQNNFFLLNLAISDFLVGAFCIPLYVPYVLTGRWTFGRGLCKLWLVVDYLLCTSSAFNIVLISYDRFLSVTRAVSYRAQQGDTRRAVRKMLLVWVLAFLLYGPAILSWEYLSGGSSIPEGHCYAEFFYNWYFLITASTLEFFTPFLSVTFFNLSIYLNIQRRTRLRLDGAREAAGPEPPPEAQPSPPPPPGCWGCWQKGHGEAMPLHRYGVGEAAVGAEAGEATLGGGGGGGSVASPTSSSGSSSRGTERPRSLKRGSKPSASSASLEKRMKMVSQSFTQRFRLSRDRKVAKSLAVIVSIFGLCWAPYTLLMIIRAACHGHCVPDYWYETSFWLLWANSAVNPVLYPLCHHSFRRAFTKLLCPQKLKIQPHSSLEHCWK

Regarding `CCCCC(C)NC(=O)OCCCc1c[nH]cn1` (racemic), the Ratio Ki in the test listed under Homo sapiens was found to be 24. Further, the Ki at Histamine H4 receptor [1] came out at 0.695 µM; on Histamine H3 receptor [2] it was 0.029 µM.

For the molecule `CCCCCC[C@H](C)NC(=O)OCCCc1c[nH]cn1`, on Histamine H3 receptor [3], the affinity corresponds to a Ki of 0.043 µM. Turning to `CCCC(C)CNC(=O)OCCCc1c[nH]cn1` (racemic), in the test filed under Homo sapiens, the Ratio Ki came to 20. Moreover, the figures for the Ki on Histamine H4 receptor [1] and at Histamine H3 receptor [2] were 0.162 µM and 0.0083 µM, respectively. Molecule `CCCCCC(C)NC(=O)OCCCc1c[nH]cn1` (racemic) returned a Ki on Histamine H3 receptor [2] of 0.052 µM. For the molecule `CCCCCC[C@@H](C)NC(=O)OCCCc1c[nH]cn1`, on Histamine H3 receptor [3], the Ki worked out at 0.028 µM. As to `CC[C@@H](C)NC(=O)OCCCc1c[nH]cn1`, the Ratio Ki in the test filed under Homo sapiens came to 24. Besides, the Ki worked out at 0.29 µM on Histamine H4 receptor [1] and 0.012 µM on Histamine H3 receptor [2].

Regarding `CCCCC[C@H](C)NC(=O)OCCCc1c[nH]cn1`, the Ratio Ki in the test listed under Homo sapiens came to 20.

`CCCCCCC(C)NC(=O)OCCCc1c[nH]cn1` (racemic) yielded a Ki at Histamine H3 receptor [2] of 0.091 µM. As for `CCCC[C@H](C)NC(=O)OCCCc1cnc[nH]1`, the Ki on Histamine H3 receptor [2] came to 0.042 µM. For `CCC(C)CCNC(=O)OCCCc1c[nH]cn1` (racemic), in the test filed under Homo sapiens, the Ratio Ki turned out to be 9. Moreover, the values for the inhibition constant (Ki) at Histamine H4 receptor [1] and at Histamine H3 receptor [2] were 0.123 µM and 0.013 µM, respectively. On Histamine H4 receptor [4], `NC(=NCc1ccc(Cl)cc1)SCCCc1cnc[nH]1` [CLOBENPROPIT] came in with a Ki of 0.0043 µM. Regarding `CCCCC[C@H](C)NC(=O)OCCCc1cnc[nH]1`, the Ki came to 1.46 µM on Histamine H4 receptor [1] and 0.074 µM at Histamine H3 receptor [2]. Take `CCCCC(CC)CNC(=O)OCCCc1cnc[nH]1` (racemic): the Ki at Histamine H4 receptor [1] is 0.779 µM; on Histamine H3 receptor [2], 0.037 µM.

`CCCCC[C@@H](C)NC(=O)OCCCc1cnc[nH]1`: the figures for the Ki on Histamine H4 receptor [1] and at Histamine H3 receptor [2] were 0.636 µM and 0.041 µM, respectively.

In turn, `CC(C)CCC(C)NC(=O)OCCCc1cnc[nH]1` (racemic) gave a Ki on Histamine H3 receptor [2] of 0.03 µM. `CCCC(C)NC(=O)OCCCc1c[nH]cn1` (racemic) registered a Ki at Histamine H3 receptor [2] of 0.021 µM. `CC[C@H](C)CNC(=O)OCCCc1c[nH]cn1`: the Ratio Ki in the test listed under Homo sapiens amounted to 25. Also, the Ki amounted to 0.118 µM at Histamine H4 receptor [1] and 0.0047 µM at Histamine H3 receptor [2]. At Histamine H4 receptor [4], `O=C(c1ccc(OCCCc2cnc[nH]2)cc1)C1CC1` [CIPROXIFAN] returned a Ki of 0.612 µM.

Molecule `CC[C@H](C)NC(=O)OCCCc1c[nH]cn1` came in with a Ki on Histamine H3 receptor [2] of 0.031 µM. At Histamine H3 receptor [2], `CCC(C)NC(=O)OCCCc1c[nH]cn1` (racemic) came in with an inhibition constant (Ki) of 0.049 µM.

Regarding `CCCCC(CC)CNC(=O)OCCCc1c[nH]cn1` (racemic), in the test filed under Homo sapiens, the Ratio Ki came out at 21. For `CCCC[C@@H](C)NC(=O)OCCCc1c[nH]cn1`, the Ratio Ki in the test filed under Homo sapiens was found to be 22. In the case of `CCC[C@@H](C)NC(=O)OCCCc1cnc[nH]1`, the inhibition constant Ki at Histamine H3 receptor [2] was 0.015 µM.

Regarding `CC(C)CCCC(C)NC(=O)OCCCc1cnc[nH]1` (racemic), the Ki at Histamine H3 receptor [5] turned out to be 0.022 µM; at Histamine H3 receptor [2] it was 0.075 µM. As for `CCCCC[C@@H](C)NC(=O)OCCCc1c[nH]cn1`, the Ratio Ki in the test listed under Homo sapiens is 16. As to `CCCC[C@@H](C)NC(=O)OCCCc1cnc[nH]1`, the Ki at Histamine H4 receptor [1] was found to be 0.426 µM; on Histamine H3 receptor [2] it was 0.019 µM.

Broadly, the Ki is the dissociation constant of the complex between target and ligand, obtained from inhibition or displacement.
